Reference: publication PMC9127186, “Molecular Basis Underlying Hepatobiliary and Renal Excretion of Phenolic Acids of Salvia miltiorrhiza Roots (Danshen)” (Frontiers in Pharmacology, 2022)

Key:
human MDR1 = human MDR1 (Homo sapiens, UniProt P08183); assay: Vesicular transport assay, inside-out membrane vesicles expressing human MDR1; conditions: 10 min
Description: (§1) Inside-out membrane vesicles (5 mg protein/mL), prepared from insect cells expressing human multidrug resistance-associated protein (MRP) 2, MRP3, MRP4, breast cancer resistance protein (BCRP), bile salt export pump (BSEP), and multidrug resistance protein (MDR) one and rat Mrp2, Mrp4, Bcrp, and Bsep, and vesicles (5 mg protein/mL; prepared from the insect cells expressing no ABC transporter; serving as negative control) were obtained from Genomembrane (Kanazawa, Japan).
(§2) The test Danshen compounds at 100 µM final concentration were separately incubated with the membrane vesicles for 10 min. Buffer C (50 mM MOPS-tris, 70 mM KCl, 7.5 mM MgCl2, pH 7.0) was used for preincubation and incubation, while buffer D (40 mM MOPS-tris, 70 mM KCl, pH 7.0) was used for vesicle washing. The transport rate (pmol/mg protein/min) of the test Danshen compound was calculated using Equation (2): Transport=(CV×VV)/T/WV (2) where C V, V V, T, and W V represent concentration of the compound in vesicular lysates supernatant (μM), volume of the lysates (μL), incubation time (10 min), and amount of vesicle protein amount per well (0.05 mg), respectively. Differential transport of the test Danshen compound between ATP-containing vesicles and AMP-containing vesicles was defined as net transport ratio (TransportATP/TransportAMP ratio). […] All the incubation samples were analyzed by liquid chromatography/mass spectrometry.

rat Bsep = target: T1, rat Bsep (Rattus norvegicus, UniProt O70127); assay: Vesicular transport assay, inside-out membrane vesicles expressing rat Bsep; conditions: 10 min
T1 sequence (O70127 1-1321): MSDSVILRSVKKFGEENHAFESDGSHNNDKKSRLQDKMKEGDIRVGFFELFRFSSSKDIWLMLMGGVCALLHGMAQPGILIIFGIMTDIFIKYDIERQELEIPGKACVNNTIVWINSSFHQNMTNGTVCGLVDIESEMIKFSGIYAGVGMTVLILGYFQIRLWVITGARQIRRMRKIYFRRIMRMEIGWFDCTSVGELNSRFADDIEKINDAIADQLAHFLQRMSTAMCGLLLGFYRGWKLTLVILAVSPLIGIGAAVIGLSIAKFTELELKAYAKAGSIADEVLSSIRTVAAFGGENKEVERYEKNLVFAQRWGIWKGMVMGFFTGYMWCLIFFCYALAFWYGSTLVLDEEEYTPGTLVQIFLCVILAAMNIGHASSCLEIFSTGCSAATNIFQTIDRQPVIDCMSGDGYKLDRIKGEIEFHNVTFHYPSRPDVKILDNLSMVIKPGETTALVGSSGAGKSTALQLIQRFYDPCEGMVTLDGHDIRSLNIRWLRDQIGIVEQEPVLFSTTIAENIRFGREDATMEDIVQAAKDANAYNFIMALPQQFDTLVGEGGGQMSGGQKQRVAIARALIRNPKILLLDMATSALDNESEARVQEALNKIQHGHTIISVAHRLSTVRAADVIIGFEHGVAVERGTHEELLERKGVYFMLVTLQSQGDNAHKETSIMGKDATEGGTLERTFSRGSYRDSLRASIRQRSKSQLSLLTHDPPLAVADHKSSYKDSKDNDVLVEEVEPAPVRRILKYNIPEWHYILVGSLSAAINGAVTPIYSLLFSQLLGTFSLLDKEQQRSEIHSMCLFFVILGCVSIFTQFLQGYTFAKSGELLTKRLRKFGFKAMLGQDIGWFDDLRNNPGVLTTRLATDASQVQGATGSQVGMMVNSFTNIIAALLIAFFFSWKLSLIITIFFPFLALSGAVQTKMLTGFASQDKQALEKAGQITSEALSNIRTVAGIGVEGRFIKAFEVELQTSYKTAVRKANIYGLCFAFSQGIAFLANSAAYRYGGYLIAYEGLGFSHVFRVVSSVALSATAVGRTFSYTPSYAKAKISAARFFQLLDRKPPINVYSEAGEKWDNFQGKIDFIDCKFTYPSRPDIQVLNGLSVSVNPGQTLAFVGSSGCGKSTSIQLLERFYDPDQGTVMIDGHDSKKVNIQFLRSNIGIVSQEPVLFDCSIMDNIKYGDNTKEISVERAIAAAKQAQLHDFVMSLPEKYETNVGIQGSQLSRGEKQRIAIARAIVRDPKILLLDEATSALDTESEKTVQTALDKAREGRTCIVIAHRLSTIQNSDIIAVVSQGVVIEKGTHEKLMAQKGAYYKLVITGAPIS
Description: as §1, §2

human OAT3 = target: T2, human OAT3 (Homo sapiens, UniProt Q8TCC7); assay: Cellular transport assay, HEK-293 cells expressing human OAT3; conditions: for TransportTC/TransportMC ratio (net transport ratio): 10 min
T2 sequence (Q8TCC7 1-542): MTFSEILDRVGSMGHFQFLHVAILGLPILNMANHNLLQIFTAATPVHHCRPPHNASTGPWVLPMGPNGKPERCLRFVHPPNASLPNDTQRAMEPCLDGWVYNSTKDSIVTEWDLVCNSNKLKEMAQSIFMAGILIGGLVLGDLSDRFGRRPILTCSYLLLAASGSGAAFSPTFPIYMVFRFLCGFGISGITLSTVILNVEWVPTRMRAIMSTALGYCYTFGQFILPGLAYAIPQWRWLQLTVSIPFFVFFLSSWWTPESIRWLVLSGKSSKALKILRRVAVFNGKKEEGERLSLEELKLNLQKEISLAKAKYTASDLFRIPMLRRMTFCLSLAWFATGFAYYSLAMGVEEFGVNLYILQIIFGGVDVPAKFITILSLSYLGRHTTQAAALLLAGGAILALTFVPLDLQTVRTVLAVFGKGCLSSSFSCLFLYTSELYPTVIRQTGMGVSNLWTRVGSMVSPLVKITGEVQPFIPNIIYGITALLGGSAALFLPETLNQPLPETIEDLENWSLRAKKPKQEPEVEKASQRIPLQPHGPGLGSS
Description: Briefly, HEK-293 cells were grown, at 37°C and 5% CO2, in Dulbecco’s modified Eagle’s medium, which was fortified with 10% fetal bovine serum, 1% minimal essential medium nonessential amino acids, and 1% antibiotic-antimycotic solution. A day before transfection, cells were seeded onto 24-well poly-D-lysine-coated plates at a density of 2 × 10^5 cells per well. After incubation at 37°C and 5% CO2 for 24 h, the expression plasmid and the empty vector were introduced separately into the HEK293 cells with Lipofectamine 2000 transfection reagent (Invitrogen, Carlsbad, CA, United States), according to the manufacturer’s protocol to yield transporter-expressing cells and mock cells, respectively.
Transport studies were performed 48 h after the transfection. […] Differential uptake between the transfected cells and mock cells was defined as net transport ratio (TransportTC/TransportMC ratio), where TransportTC and TransportMC are the transport rates of a test Danshen compound into transfected and mock cells, respectively. […] The determination was performed under linear uptake conditions by incubation for 5 min. Table 1 summarizes the final concentrations of the test Danshen compounds for different transporters. All the incubation samples were analyzed by liquid chromatography/mass spectrometry.
GraFit software (version 5.0; Erithacus Software Ltd, Surrey, United Kingdom) was used to determine the K m and V max values by nonlinear regression analysis of initial transport rates as a function of substrate concentration.

[1] = Danshen phenolic acid at 100 μM final concentration, human MDR1 vesicles
[2] = Danshen phenolic acid at 100 μM final concentration, rat Bsep vesicles
[3] = Danshen phenolic acid at 100 μM final concentration, human OAT3-transfected vs mock cells

Sequence of human MDR1 (P08183 whole entry): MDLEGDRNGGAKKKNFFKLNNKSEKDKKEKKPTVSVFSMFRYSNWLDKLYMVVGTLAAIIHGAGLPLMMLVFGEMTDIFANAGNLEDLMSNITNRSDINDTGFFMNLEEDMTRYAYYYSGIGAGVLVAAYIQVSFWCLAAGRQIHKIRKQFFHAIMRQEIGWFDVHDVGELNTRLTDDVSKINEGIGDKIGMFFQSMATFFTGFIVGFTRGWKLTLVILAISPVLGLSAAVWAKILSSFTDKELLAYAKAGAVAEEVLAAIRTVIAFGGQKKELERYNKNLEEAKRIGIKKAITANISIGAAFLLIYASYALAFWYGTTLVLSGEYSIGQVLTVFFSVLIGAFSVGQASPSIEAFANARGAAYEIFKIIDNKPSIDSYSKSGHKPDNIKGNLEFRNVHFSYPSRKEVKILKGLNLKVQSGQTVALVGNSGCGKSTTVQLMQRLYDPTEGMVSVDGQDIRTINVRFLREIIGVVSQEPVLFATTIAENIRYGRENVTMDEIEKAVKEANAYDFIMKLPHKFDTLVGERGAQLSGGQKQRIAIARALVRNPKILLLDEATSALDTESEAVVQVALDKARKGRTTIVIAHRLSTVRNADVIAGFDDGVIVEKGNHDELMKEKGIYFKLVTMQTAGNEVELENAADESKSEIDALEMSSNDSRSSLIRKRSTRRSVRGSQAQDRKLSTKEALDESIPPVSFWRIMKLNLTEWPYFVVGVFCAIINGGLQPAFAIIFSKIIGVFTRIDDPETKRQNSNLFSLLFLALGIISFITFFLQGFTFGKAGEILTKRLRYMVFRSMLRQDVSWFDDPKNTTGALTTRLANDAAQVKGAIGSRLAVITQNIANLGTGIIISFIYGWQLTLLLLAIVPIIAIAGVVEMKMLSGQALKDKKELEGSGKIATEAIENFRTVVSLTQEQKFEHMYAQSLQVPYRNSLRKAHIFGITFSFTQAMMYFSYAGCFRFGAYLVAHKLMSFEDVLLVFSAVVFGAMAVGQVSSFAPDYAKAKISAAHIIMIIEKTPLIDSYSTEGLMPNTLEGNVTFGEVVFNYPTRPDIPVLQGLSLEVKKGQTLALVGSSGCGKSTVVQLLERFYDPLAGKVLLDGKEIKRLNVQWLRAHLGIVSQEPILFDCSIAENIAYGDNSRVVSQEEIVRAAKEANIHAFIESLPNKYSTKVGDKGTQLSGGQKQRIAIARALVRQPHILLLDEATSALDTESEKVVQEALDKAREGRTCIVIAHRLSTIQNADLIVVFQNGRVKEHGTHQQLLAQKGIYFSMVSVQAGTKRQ

| Compound | TransportATP/TransportAMP ratio (net transport ratio) (human MDR1; [1]) | TransportATP/TransportAMP ratio (net transport ratio) (rat Bsep; [2]) | TransportTC/TransportMC ratio (net transport ratio) (human OAT3; [3]) | K m (human OAT3; human renal basolateral uptake OAT3, 5 min incubation, concentrations in Table 1) | microsomal CLint (human OAT3; human, other cell line) [µL/min/mg] | TransportATP/TransportAMP ratio (net transport ratio) (human MDR1; human, 100 μM, pH 7) | TransportATP/TransportAMP ratio (net transport ratio) (rat Bsep; rat, 100 μM, pH 7) | TransportTC/TransportMC ratio (net transport ratio) (human OAT3; human, 100 μM) |
| --- | --- | --- | --- | --- | --- | --- | --- | --- |
| salvianolic acid B | 1.66 ± 0.12 | 1.52 ± 0.67 | 1.03 ± 0.24 |  |  |  |  |  |
| O=C(O)Cc1c(/C=C/C(=O)O[C@H](Cc2ccc(O)c(O)c2)C(=O)O)ccc(O)c1O [Salvianolic acid D, salvianolic acid D] | 0.92 ± 0.23 | 1.09 ± 0.23 | 1.12 ± 0.56 |  |  |  |  |  |
| O=C(O)C(O)Cc1ccc(O)c(O)c1 (centres unmarked) [Tanshinol, tanshinol] |  |  |  | 1,565 ± 127 μM | 0.11 |  |  |  |
| O=C(/C=C/c1ccc(O)c2c1[C@H](C(=O)O)[C@@H](c1ccc(O)c(O)c1)O2)O[C@H](Cc1ccc(O)c(O)c1)C(=O)O [Lithospermic acid, lithospermic acid] | 1.26 ± 0.09 | 1.69 ± 0.37 | 0.96 ± 0.15 |  |  |  |  |  |
| O=C(/C=C/c1ccc(O)c(O)c1)O[C@H](Cc1ccc(O)c(O)c1)C(=O)O [Rosmarinic acid, rosmarinic acid] |  |  |  |  |  | 1.04 ± 0.18 | 1.39 ± 0.36 | 1.56 ± 0.36 |
| O=C(/C=C/c1ccc(O)c(O)c1/C=C/c1ccc(O)c(O)c1)O[C@H](Cc1ccc(O)c(O)c1)C(=O)O [Salvianolic acid A, salvianolic acid A] |  |  |  |  |  | 1.26 ± 0.05 | 0.75 ± 0.12 | 2.12 ± 0.13 |
| O=C(O)c1ccc(O)c(O)c1 [Protocatechuic acid, protocatechuic acid] | 0.93 ± 0.04 | 1.13 ± 0.17 | 1.12 ± 0.25 |  |  |  |  |  |
